The values below come from US7879863B2, “Aniline derivatives” (Ajinomoto Co., Inc., priority 2004, dated 2011).

Experiment [1] concerns the target T1, human activated tissue kallikrein (Homo sapiens, UniProt P06870).
T1 construct: 6xHis (C); made in house; host or cells: baculovirus / Sf21 insect cells
Briefly: Measurement of tissue kallikrein inhibitory activity. The settings on record: activated tissue kallikrein activity (initial rate) inhibited by 50%; substrate D-valyl-L-leucyl-L-arginyl-p-nitroanilide; 37° C. Type of experiment: biochemical. The procedure:
Measurement of tissue kallikrein inhibitory activity
Expression and purification of human activated tissue kallikrein was performed according to the method of Angermann (A. Angermann et al., Eur. J. Biochem., 206, 225-233 (1992)). That is, a gene was prepared by adding 6 residues of histidine to the C-terminal side of human pancreas kallikrein gene (D. Fukuchima et al, Biochemistry, 24, 8037-8043 (1985)), and tissue prokallikrein was expressed by a system using a baculovirus-insect cell (Sf21). Purified human tissue kallikrein was obtained from the culture supernatant by purification using a nickel chelate column (Ni-NTA, QIAGEN K. K.), digestion with TPCK trypsin and further nickel chelate column. To a solution (100 μL) of the human activated tissue kallikrein adjusted to 0.0625 μg/mL with an assay buffer (100 mM tris-hydrochloride buffer (pH 8.4) containing 0.2M NaCl, 0.02% Tween 20, and 0.1% PEG 6000) was added an assay buffer (containing 2% DMSO) solution (50 μL) of the test compound adjusted to the objective concentration, and the mixture was incubated at 37° C. for 10 minutes (min=minutes). Then, a 4 mM solution (50 μL) of D-valyl-L-leucyl-L-arginyl-p-nitroanilide hydrochloride (BACHEM AG) adjusted with the assay buffer was added, the absorbance was measured and the reaction rate was determined. As a control, a DMSO solution (50 μL) was added instead of the solution of the test compound. Absorbance was measured at a wavelength of 405 nm at 60 second intervals for 90 min using a Benchmark Plus Microplate Reader (BIO RAD). The negative logarithm value (abbreviated as pIC50) of the test compound concentration when the activated tissue kallikrein activity (initial rate) was inhibited by 50% without addition of the test compound was used as an index of the activated tissue kallikrein inhibitory activity.

Experiment [2] has as its system DSS-induced enteritis model. Briefly: Efficacy evaluation in DSS-induced enteritis model. Type of experiment: in vivo, female CBA mice. The settings on record: mice, 5% DSS, relative to non-treatment group = 100%, mean ± standard error. An excerpt: Efficacy evaluation in DSS-induced enteritis model
The dextran sodium sulfate (DSS)-induced enteritis model was subjected to evaluation by a partly-modified methods of Gastroenterology, 98, 694-702 (1990) and Cytokine, 11, 890-896 (1998). A 5 (w/v) % DSS (manufactured by Sigma, MW 5,000) solution was freely taken by female CBA mice (CHARLES RIVER LABORATORIES JAPAN, INC.) for a given period to induce enteritis. A solution of the test compound adjusted to the objective concentration with a 0.5 (w/v) % tragacanth gum (TG) solution was orally administered at 5 mL/kg. Upon autopsy, the length, weight and the like of the large intestine were evaluated and used as an index of the onset of inflammatory enteritis. As a control, a mouse, to which a 0.5 (w/v) % TG solution was orally administered at 5 mL/kg instead of the test compound, was used. The length and weight of the large intestine are expressed as the relative value when the average value of the non-treatment group is 100%. As a Reference Example, the values obtained by oral administration of a positive control drug, salazosulfapyridine, instead of the test compound are shown. […] For testing the significant difference, Dunnett's t-test was used, and statistic significance as shown by P<0.05 and P<0.01 relative to the TG control group is shown in the Table with * and **, respectively.

Experiment [3] relates to acetic acid writhing model. The experiment can be described thus: Efficacy evaluation in acetic acid writhing model. The settings on record: mice, writhing number 5 to 20 min after 0.9% acetic acid i.p., mean ± standard error. Type of experiment: in vivo, male ICR mice. On the procedure:
Efficacy evaluation in acetic acid writhing model
The acetic acid writhing model was subjected to evaluation according to the method of European Journal of Pharmacology, 352, 47-52 (1998). To be specific, a solution of the test compound adjusted to the objective concentration with a 0.5 (w/v) % tragacanth gum solution was orally administered to male ICR mice (CHARLES RIVER LABORATORIES JAPAN, INC.) at 5 mL/kg, and a 0.9% acetic acid solution adjusted with a physiological saline was intraperitoneally administered 60 min later at 5 mL/kg. The number of writhing for 15 min from 5 min to 20 min after administration of a 0.9% acetic acid solution was counted and taken as the writhing number of the test compound. A mouse, to which a 0.5 (w/v) % tragacanth gum (TG) solution was orally administered at 5 ml/kg instead of the test compound, was used as a control. The suppression rate (%) was calculated by subtracting the relative value of each mouse from the relative value when the average value of the control group is 100%. As a Reference Example, the value obtained by oral administration of a positive control drug, indomethacin, instead of the test compound is shown. […] For testing the significant difference, Dunnett's t-test was used, and statistic significance as shown by P<0.05 and P<0.01 relative to the TG control group is shown in the Table with * and **, respectively.
On the technique in general: In writhing tests, fewer writhes than in controls are read as antinociception.

Structures are written as SMILES. pIC50: −log10 of the molar value. Where a name gives a salt, the structure may show the parent alone. Marks after values point to notes of the source that are not given here.

T1 sequence (P06870 25-262): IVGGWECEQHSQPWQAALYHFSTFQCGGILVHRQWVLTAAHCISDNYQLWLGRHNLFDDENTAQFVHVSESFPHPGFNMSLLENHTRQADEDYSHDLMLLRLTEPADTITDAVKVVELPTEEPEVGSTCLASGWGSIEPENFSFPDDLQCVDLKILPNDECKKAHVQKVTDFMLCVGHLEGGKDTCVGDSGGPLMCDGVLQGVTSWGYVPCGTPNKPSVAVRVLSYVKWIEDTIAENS

`CCN1CCC(O)c2cc(C(F)(F)F)ccc21` (centres unmarked) [Compound E-6] had a pIC50 in experiment [1] of 6.60. Besides, the “large intestine length (%)” value in experiment [2] (10 mg/kg oral) is on record as 85.2 ± 2.4** %; in experiment [2] (30 mg/kg oral), 87.9 ± 2.0** %. For the same compound, the figures for the “large intestine weight (%)” value in experiment [2] (10 mg/kg oral) and in experiment [2] (30 mg/kg oral) were 117.5 ± 5.1** % and 110.7 ± 4.1** %, respectively. For the same compound, the results for the “suppression rate (%)” value in experiment [3] (3 mg/kg oral), in experiment [3] (10 mg/kg oral) and in experiment [3] (30 mg/kg oral) were 58.7 ± 7.0** %, 58.7 ± 5.8** % and 64.9 ± 8.3** %, respectively. Turning to `CC(C)[C@H](CNC(=O)Cc1ccccn1)Nc1ccc(C(F)(F)F)cc1` [Compound A-8], in experiment [1], the pIC50 is 7.04. The “large intestine length (%)” value in experiment [2] (10 mg/kg oral) is given as 80.4 ± 1.8** %. Further, in experiment [2] (10 mg/kg oral), the “large intestine weight (%)” value is on record as 130.5 ± 5.28** %. Besides, the “suppression rate (%)” value was 33.7 ± 10.1* % in experiment [3] (3 mg/kg oral), 52.7 ± 7.5** % in experiment [3] (10 mg/kg oral) and 63.5 ± 6.6** % in experiment [3] (30 mg/kg oral). As to `O=C(O)c1cc(/N=N/c2ccc(S(=O)(=O)Nc3ccccn3)cc2)ccc1O` [salazosulfapyridine, reference compound], in experiment [2] (200 mg/kg oral), the “large intestine length (%)” value is given as 78.1 ± 1.5* % and the “large intestine weight (%)” value is reported as 123.0 ± 1.9** %. Turning to `CC(C)[C@H](CCNC(=O)C1CCN(C(C)C)CC1)Nc1ccc(C(F)(F)F)cc1` [Compound A-52], in experiment [1], the pIC50 is 6.82.

In experiment [1], `CC(C)[C@H](CNC(=O)[C@@H](N)CO)Nc1ccc(C(F)(F)F)cc1` [Compound A-18] gave a pIC50 of 6.51. `CC(C)[C@H](CNC(=O)[C@@H](C)N)Nc1ccc(C(F)(F)F)cc1` [Compound A-17] gave a negative-log IC50 (pIC50) in experiment [1] of 6.53. `CC(C)[C@H](CNC(=O)[C@@H](N)C(C)C)Nc1ccc(C(F)(F)F)cc1` [Compound A-15]: in experiment [1], the negative logarithm of the IC50 (pIC50) was 6.74. This pIC50 is 0.21 log units higher than that of the compound before. Same read-out and setting: in the case of `CC(C)[C@H](CNC(=O)c1cccc(N(C)C)c1)Nc1ccc(C(F)(F)F)cc1` [Compound A-10] it was 6.84. The compound `CC(C)[C@H](CNC(=O)Cc1ccccc1)Nc1ccc(C(F)(F)F)cc1N` [Compound A-56, N-((2R)-2-{[2-amino-4-(trifluoromethyl)phenyl]amino}-3-methylbutyl)-2-phenylacetamide trifluoroacetate] had a negative-log IC50 (pIC50) in experiment [1] of 7.30. Same read-out and setting: in the case of `CC(C)[C@H](CNC(=O)[C@@H](N)Cc1c[nH]c2ccccc12)Nc1ccc(C(F)(F)F)cc1N` [Compound A-57] it was 7.44; in that of `O=C(N[C@H]1CCN(c2ccc(C(F)(F)F)cc2)C1)C1CCN(c2ccncc2)CC1` [Compound B-2], 6.69. Turning to `CC(C(=O)NC[C@H](Nc1ccc(C(F)(F)F)cc1)C(C)C)c1ccc(-c2ccccc2)c(F)c1` (some centres unmarked) [Compound A-6], the pIC50 in experiment [1] was 7.24. The same measure, in the same setting: in the case of `CC(C)[C@H](CNC(=O)Cc1ccccc1)Nc1ccc(C(F)(F)F)cc1` [Compound A-1, N-((2R)-3-methyl-2-{[4-(trifluoromethyl)phenyl]amino}butyl)-2-phenylacetamide trifluoroacetate] it was 7.66; in that of `CC(C)[C@H](CNC(=O)Cc1ccccc1)Nc1ccc(C(F)(F)F)cc1CO` [Compound A-55, N-((2R)-2-{[2-(hydroxymethyl)-4-(trifluoromethyl)phenyl]amino}-3-methylbutyl)-2-phenylacetamide], 7.70. On the same count and under the same terms, under `CCCCN1CCC(O)c2cc(C(F)(F)F)ccc21` (centres unmarked) [Compound E-4] stands 6.59. With `COc1ccc2c(c1)c(CC(=O)O)c(C)n2C(=O)c1ccc(Cl)cc1` [Indomethacin, indomethacin, reference compound], in experiment [3] (10 mg/kg oral), the “suppression rate (%)” value is 64.1 ± 10.8** %.

Broadly, the pIC50 is the IC50 on a negative log10 scale, so that one unit is a factor of ten. The low end stands for a large IC50, the high end for a small IC50.
